Results: patent publication US10765094B2, “Inflammation reporter system” (priority 2014, dated 2020)

What was measured:
[1] = test system: mouse-derived macrophage-like cell line RAW264; test: Reporter activity in RAW264 cells transiently transfected with the reporter gene vector, luciferase luminescence measured with a luminometer; type: cell-based; conditions: LPS 2 μg/mL
Description: The gene vector constructed as above was transiently introduced into mouse-derived macrophage-like cell line RAW264.
For transfection, Effectene (Qiagen) was used, and the cells at 24 hours after transfection were collected and provided for experiments. To a culture of transiently expressing cells, LPS (Sigma #L2654) was added at a concentration of 2 μg/mL, and the amount of luciferase luminescence at 48 hours after addition was determined by being measured with a luminometer. For use as a control, an LPS-free group was provided. In addition, as a conventional reporter system detecting only IL-1β gene expression, a vector was prepared to have GL4 ligated downstream of a promoter for the IL-1β gene, and cells transfected with this vector were provided for the same test.

[2] = test system: inflammation reporter mouse; test: Visualization of inflammatory reactions in the inflammation reporter transgenic mouse, bioimaging analyzer (IVIS); type: in vivo; conditions: LPS 3 mg/kg wt intraperitoneally; 0, 4 and 24 hours after administration
Description: The excised and purified gene vector was injected into 200 fertilized eggs at the pronucleus stage which had been taken from mice of the C57BL/6 strain, thereby obtaining 71 pups. The genomic DNA extracted from the body tissue of each pup was used for genotype analysis to thereby obtain 18 founder mice having the gene vector inserted into their genome. Four founder mice were each crossed with a wild-type mouse of the C57BL/6 strain to produce F1 generation mice, which were then examined for reporter molecule reaction when intraperitoneally administered with LPS (Sigma #L2654).
The inflammation reporter mouse thus established was intraperitoneally administered with LPS (Sigma #L2654) at a concentration of 3 mg/kg wt.

In the case of lipopolysaccharide [LPS], the “reporter signals (amount of luciferase luminescence) upon LPS stimulation” value ([1]; 48 hours after addition, vs LPS-free group, cells transfected with vector of the present invention or of conventional type) is reported as “significant increase in reporter signals” and the “luciferase luminescence signals in the body” value [2] is reported as “luminescence signals from luciferase were able to be captured from all tissues of the body”.

With “vector of the present invention: gene vector: IL-1β promoter/TK promoter, GL4 luciferase, IL-1β partial sequence (17-216 aa), CL1-PEST, SV40 polyA” the “improvement in sensitivity compared to the vector of conventional type” value ([1]; 48 hours, conventional vector = GL4 downstream of IL-1β gene promoter) was no less than 2 fold.
